Here are results for 12 compounds from ChEMBL document CHEMBL1201862, “PubChem BioAssay data set” (2004).

SMILES strings stand for the structures.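 A five-concentration, 48-hour dose response in 96-well plates underlies each endpoint, interpolated linearly between surrounding concentrations. GI50 = concentration required for 50% inhibition of growth.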 Calls of active or inactive are those of the source. Rule as the data show it: active = GI50 up to about 1.1 µM and inactive = higher. Bounds are passed on as bounds.

Test systems include OVCAR-3; SF-539; K562; SK-OV-3; HCC 2998; HOP-62; OVCAR-8; OVCAR-5; SK-MEL-2; NCI-H226; A498; PC-3; SF-295; SN12C; CAKI-1; RXF 393; MCF7; MDA-N; SF-268; SR.
Common to all, as to experiment: NCI anticancer screen, dose series, 48 h

For the compound `CC(C)(C)OC(=O)NCCC(=O)NC1(c2cc3ccccc3s2)CCCCC1`, the GI50 in the assay on OVCAR-3 was 15.6 µM (inactive); in the assay on SF-539 it was 15 µM (inactive); with K562, 12.3 µM (inactive); with SK-OV-3, 24.4 µM (inactive); in the assay with HCC 2998, 23.2 µM (inactive); with HOP-62 it was 18.4 µM (inactive). In addition, the GI50 is 17.5 µM (inactive) in the assay on OVCAR-8; 19.7 µM (inactive) in the assay on OVCAR-5; 18 µM (inactive) in the assay with SK-MEL-2; 21.3 µM (inactive) in the assay on NCI-H226; 22.9 µM (inactive) in the assay with A498; 18.5 µM (inactive) in the assay with PC-3. Moreover, the GI50 with SF-295 is 18.4 µM (inactive); in the assay with SN12C it was 18.3 µM (inactive); in the assay with CAKI-1, 21.2 µM (inactive); in the assay with RXF 393, 12.8 µM (inactive); with MCF7, 17.5 µM (inactive); in the assay on MDA-N, 17.6 µM (inactive).
Regarding `Cc1n[nH]c(=O)n1N=C(c1ccccc1)c1ccccc1`, the GI50 with OVCAR-3, in the assay with K562, in the assay on HOP-62, in the assay on OVCAR-8, in the assay on OVCAR-5 and in the assay with SK-MEL-2 was > 100 µM (inactive) throughout. Moreover, the GI50 in the assay with NCI-H226, in the assay on A498, with PC-3, with SF-295, in the assay with SF-268 and in the assay on SN12C was > 100 µM (inactive) each time. Besides, the GI50 was > 100 µM (inactive) in the assay on CAKI-1, 1.26 µM (inactive) with RXF 393, > 100 µM (inactive) in the assay on MCF7 and > 100 µM (inactive) with MDA-N.
In the case of `NCc1ccc(-c2ccc(-c3ccc(-c4ccc(CN)s4)s3)s2)s1`, the GI50 in the assay with OVCAR-3, with SF-539, in the assay on K562, with SK-OV-3, in the assay with HCC 2998 and with HOP-62 was > 100 µM (inactive) throughout. The GI50 in the assay on OVCAR-8, with OVCAR-5, with SK-MEL-2, in the assay on NCI-H226, in the assay with A498 and in the assay on PC-3 was > 100 µM (inactive) throughout. Moreover, the GI50 in the assay with SF-295, in the assay on SN12C, with CAKI-1, in the assay on RXF 393, with MCF7 and with MDA-N was > 100 µM (inactive) each time.
For `O=c1oc2ccc([N+](=O)[O-])cc2cc1-c1csc(-c2ccccc2)n1`, the GI50 with SF-539, in the assay on K562, with SK-OV-3, with HCC 2998, in the assay on HOP-62 and in the assay on OVCAR-8 was > 100 µM (inactive) throughout. Besides, the GI50 in the assay on SR, in the assay with OVCAR-5, in the assay with SK-MEL-2, in the assay on NCI-H226, with PC-3 and with SF-295 was > 100 µM (inactive) each time. Moreover, the GI50 in the assay with SF-268, in the assay on SN12C, with CAKI-1, with RXF 393, in the assay with MCF7 and with MDA-N was > 100 µM (inactive) throughout.
With `C/C(=N/O)c1cccc(Nc2nc3ccccc3c3[nH]c4ccccc4c23)c1`, the GI50 is 2.22 µM (inactive) in the assay on OVCAR-3; 5.74 µM (inactive) with SF-539; 3.44 µM (inactive) with K562; 5.98 µM (inactive) in the assay with SK-OV-3; 2.29 µM (inactive) with HOP-62; 2.65 µM (inactive) in the assay with OVCAR-8. For the same compound, the GI50 was 1.15 µM (inactive) in the assay on SR; 2.65 µM (inactive) in the assay with OVCAR-5; 2.25 µM (inactive) in the assay on SK-MEL-2; 4.8 µM (inactive) in the assay with NCI-H226; 2.93 µM (inactive) with PC-3; 1.98 µM (inactive) with SF-295. For the same compound, the GI50 in the assay with SF-268 is 1.87 µM (inactive); with SN12C it was 3.4 µM (inactive); with CAKI-1 it was 2.75 µM (inactive); in the assay with RXF 393, 1.89 µM (inactive); in the assay on MCF7, 1.48 µM (inactive); with MDA-N, 1.82 µM (inactive).
Turning to `CN(C)CC1CN=C(N)O1` (centres undefined), the GI50 in the assay with OVCAR-3, in the assay on SF-539, in the assay with K562, in the assay with SK-OV-3, in the assay with HCC 2998 and in the assay on HOP-62 was > 100 µM (inactive) throughout. Besides, the GI50 in the assay on OVCAR-5, in the assay on SK-MEL-2, with NCI-H226, in the assay on A498, with PC-3 and in the assay on SF-295 was > 100 µM (inactive) throughout. The GI50 in the assay with SF-268, with SN12C, in the assay with CAKI-1, in the assay with RXF 393, in the assay on MCF7 and in the assay with MDA-N was > 100 µM (inactive) each time.
For `Cn1c2ccccc2c2c3c(c4c5ccccc5n(C)c4c21)C(=O)c1ccccc1C3=O`, the GI50 in the assay on OVCAR-3 is 41.8 µM (inactive); in the assay on SF-539, 16.6 µM (inactive); with SK-OV-3, 48.9 µM (inactive); in the assay on HCC 2998 it was 96.8 µM (inactive); in the assay on HOP-62 it was 31.1 µM (inactive); with OVCAR-8, 40.1 µM (inactive). Besides, the GI50 in the assay on SR is 18.7 µM (inactive); in the assay on OVCAR-5 it was > 100 µM (inactive); in the assay with SK-MEL-2, 40.3 µM (inactive); in the assay with NCI-H226, > 100 µM (inactive); with PC-3 it was 45.8 µM (inactive); in the assay on SF-295 it was 44.1 µM (inactive). Besides, the GI50 is 61.2 µM (inactive) with SN12C; 33.9 µM (inactive) in the assay on CAKI-1; 16.3 µM (inactive) in the assay with RXF 393; 67.1 µM (inactive) in the assay on MCF7; 72.8 µM (inactive) with MDA-N.
In the case of `COc1cc2c(cc1OC)C1=C(C=O)c3ccc(OC)c(OC)c3C(O)N1CC2` (centres undefined), the GI50 in the assay with OVCAR-3 is 39 µM (inactive); with SF-539, 12.9 µM (inactive); in the assay on SK-OV-3 it was 65.8 µM (inactive); with HCC 2998, 13.2 µM (inactive); in the assay with HOP-62, 39.7 µM (inactive); with OVCAR-5, 31.7 µM (inactive). Besides, the GI50 in the assay with SK-MEL-2 was 13.8 µM (inactive); in the assay with NCI-H226 it was 66.5 µM (inactive); with A498, 21.8 µM (inactive); with PC-3, 17.5 µM (inactive); in the assay with SF-295 it was 24 µM (inactive); in the assay on SF-268, 27.5 µM (inactive). For the same compound, the GI50 with SN12C was 33.2 µM (inactive); in the assay on CAKI-1, 31.2 µM (inactive); with MCF7, 32.6 µM (inactive); in the assay with MDA-N, 31.5 µM (inactive).
In the case of `S=C1C=C(c2ccccc2)Sc2ccccc2N1`, the GI50 was > 100 µM (inactive) with OVCAR-3; > 100 µM (inactive) in the assay on K562; > 100 µM (inactive) in the assay on SK-OV-3; 41.4 µM (inactive) in the assay with HOP-62; > 100 µM (inactive) with OVCAR-8; > 100 µM (inactive) in the assay with SR. Further, the GI50 with OVCAR-5, in the assay with NCI-H226, in the assay with PC-3, in the assay with SF-295, with SF-268 and in the assay with SN12C was > 100 µM (inactive) throughout. For the same compound, the GI50 in the assay with CAKI-1 is > 100 µM (inactive); in the assay on RXF 393, 8.95 µM (inactive); in the assay with MCF7, > 100 µM (inactive); with MDA-N it was > 100 µM (inactive).
Regarding `COc1cc(C2c3cc4c(cc3[C@@H](Nc3ccc(F)cc3)C3COC[C@H]23)OCO4)cc(OC)c1O` (some centres undefined), the GI50 in the assay with SF-539 is 0.75 µM (active); in the assay with K562 it was 4.19 µM (inactive); with SK-OV-3, 4.98 µM (inactive); with HCC 2998, 6.85 µM (inactive); with HOP-62, 2.45 µM (inactive); with OVCAR-8, 2.8 µM (inactive). For the same compound, the GI50 in the assay with SR was 0.543 µM (active); with OVCAR-5 it was 3.62 µM (inactive); with PC-3 it was 3.26 µM (inactive); with SF-295, 0.877 µM (active); with SF-268, 3.85 µM (inactive); in the assay on SN12C, 2 µM (inactive). Moreover, the GI50 in the assay with MCF7 was 1.1 µM (active); in the assay on MDA-N, 7.66 µM (inactive).
In the case of `O=C1CC(C(COCc2ccccc2)OCc2ccccc2)CC(=O)N1` (centres undefined), the GI50 in the assay with OVCAR-3, with SF-539, in the assay with K562, in the assay with HCC 2998, with HOP-62 and in the assay on OVCAR-8 was > 100 µM (inactive) in each case. Moreover, the GI50 with SR was > 100 µM (inactive); with OVCAR-5 it was > 100 µM (inactive); with NCI-H226 it was > 100 µM (inactive); in the assay with PC-3, 83.2 µM (inactive); in the assay with SF-295, > 100 µM (inactive); in the assay with SF-268 it was > 100 µM (inactive). Besides, the GI50 in the assay with SN12C, in the assay with CAKI-1, in the assay with MCF7 and in the assay with MDA-N was > 100 µM (inactive) in each case.
Consider `Oc1cc(O)c2ccc(-c3ccc(O)c(O)c3)[o+]c2c1`, for which the GI50 in the assay on OVCAR-3, with SF-539, in the assay on K562, in the assay on SK-OV-3, in the assay with HCC 2998 and in the assay on HOP-62 was > 100 µM (inactive) in each case. The GI50 with OVCAR-8, in the assay on OVCAR-5, with SK-MEL-2, with NCI-H226, in the assay with A498 and in the assay with PC-3 was > 100 µM (inactive) throughout. In addition, the GI50 is > 10 µM (inactive) in the assay with SF-295; > 100 µM (inactive) with SF-268; > 100 µM (inactive) in the assay with SN12C; > 100 µM (inactive) with CAKI-1; 63.8 µM (inactive) with RXF 393; > 100 µM (inactive) with MCF7. For the same compound, in the assay on MDA-N, the GI50 was > 100 µM (inactive).
